# Columns and labels:
# [1] = system: stroke-prone spontaneously hypertensive rats (SHRSP/Izm, male); experiment: Evaluation of blood fluidity: whole blood transit time through microchannel array (MC-FAN) after 28 days oral administration; assay type: in vivo, rat; conditions: 50 mg/Kg/day oral; for Transit time: 7 μm microchannels, 20 cm water column
# Description: Tests were started using stroke-prone spontaneously hypertensive rats (SHRSP/Izm, male) 6 weeks old after acclimating the rats 1 week or longer. The rats were all fed under the conditions of 20 to 26° C. temperature, 40 to 70% humidity and 12 hr. lighting time (from 6 a.m. to 6 p.m.).
# The rats were administered with samples of the example of the present invention and samples of the comparative example once a day for continuous 28 days from a day when the rats reached 8 weeks of age. For administration, samples were orally administered by forced administration using a disposable polypropylene syringe attached with a metallic oral sonde. For the example, each sample contained a chlorogenic acid (supplied by Sigma Chemical Co., Ltd.) of 50 mg/Kg (body weight)/day, while the comparative example used the equal dose of injection grade water (supplied by Otsuka Pharmaceutical Co., Ltd., Tokyo, Japan) as samples. The preferred example also used the injection grade water as a medium for samples.
# For feeds, the rats had been fed freely with a solid feed (CRF-1 supplied by Oriental Yeast Co., Ltd., Tokyo, Japan) for a period from the arrival to grouping of rats and with another solid feed (SP (a feed containing 0.4% common salt) supplied by the same manufacturer as above) for a period succeeding to the grouping. For drinking water, tap water was used in the period from the receipt to grouping of rats and 1% brine in the period after the grouping, respectively, for free uptake.
# After administering rats with a specified sample for 28 continuous days, blood was sampled from each rat using a VENOJECT II vacuum blood collection tube of 7 mL size (available from Terumo Corporation, Tokyo, Japan) preinfused with 350 μL heparin as an anticoagulant (equivalent to 5% of whole blood). Upon sampling, the blood was agitated quickly to obtain blood samples for measurement. For blood measurement, a cellular microrheological measurement system was used (MC-FAN available from Hitachi Haramachi Electronics Co., Ltd., Ibaragi, Japan). The system incorporates an array of microchannels as a model of blood capillaries to measure the flowing characteristics of blood cells under constant differential pressure. As the model of blood capillaries, a silicon monocrystal basal plate having microchannels of 7 μm in width was used.
# First, the time was measured for a 100 μL physiological saline solution to pass through the blood capillary model under differential pressure of 20 cm water column (the measured value to be used later for correction). Then the time was measured (in sec.) for a 100 μL each blood sample to pass through the blood capillary model under the same conditions. The time was measured every 10 μL fraction of sample flow. Each blood sample was microscopically observed as it flowed through the blood capillary model.
# [2] = system: stroke-prone spontaneously hypertensive rats (SHRSP/Izm, male); experiment: Evaluation of effects of improving cerebrovascular diseases: development of cerebral apoplexy, histopathological examination; assay type: in vivo, rat; conditions: 50 mg/Kg/day oral, 49 days
# Description: Tests were started using stroke-prone spontaneously hypertensive rats (SHRSP/Izm, male) 6 weeks old after acclimating the rats I week or longer. The rats were all fed under the conditions of 20 to 26° C. temperature, 40 to 70% humidity and 12 hr. lighting time (from 6 a.m. to 6 p.m.). Rat was administered with samples of the preferred example of the present invention and samples of the comparative example once a day for continuous 49 days from a day when the rats reached 8 weeks of age. For administration, samples were orally administered by forced administration using a disposable polypropylene syringe attached with a metallic oral sonde. For the preferred example, each sample comprised a chlorogenic acid (supplied by Sigma Chemical Co., Ltd.) of 50 mg/Kg (body weight)/day, while the comparative example used the equal dose of injection grade water (supplied by Otsuka Pharmaceutical Co., Ltd., Tokyo, Japan) as samples. The preferred example also used the injection grade water as a medium for samples. For feeds, the rats were fed freely with a solid feed (CRF-1 supplied by Oriental Yeast Co., Ltd., Tokyo, Japan) for a period from the arrival to grouping of rats and with another solid feed (SP (a feed containing 0.4% common salt) supplied by the same manufacturer as above) for a period succeeding to the grouping. […]
structure (smiles),measurement,setting,value
"O=C(/C=C/c1ccc(O)c(O)c1)O[C@@H]1C[C@](O)(C(=O)O)C[C@@H](O)[C@H]1O [Preferred example, chlorogenic acid]","Transit times versus comparative example (injection grade water), in words",[1],shorter transit times
same,Transit time,[1]; blood volume passed 10 μL,4.87 s
same,Transit time,[1]; blood volume passed 20 μL,9.67 s
same,Transit time,[1]; blood volume passed 30 μL,14.31 s
same,Transit time,[1]; blood volume passed 40 μL,19.34 s
same,Transit time,[1]; blood volume passed 50 μL,24.59 s
same,Transit time,[1]; blood volume passed 60 μL,30.03 s
same,Transit time,[1]; blood volume passed 70 μL,35.90 s
same,Transit time,[1]; blood volume passed 80 μL,41.65 s
same,Transit time,[1]; blood volume passed 90 μL,47.58 s
same,Transit time,[1]; blood volume passed 100 μL,53.38 s
same,"Development of cerebral apoplexy versus comparative example (injection grade water), in words",[2],definitely suppressed development of cerebral apoplexy
same,Cerebral apoplexy developed (number of rats),[2]; of 10 rats used,3
